Assay results reported in patent publication US20240174670A1, “4-AMINO-6-OXO-PYRIDAZINE DERIVATIVES MODULATING NLRP3” (JANSSEN PHARMACEUTICA NV, priority 2021, published 2024).

Legend:
[1] = system: IL-1β; assay: PBMC assay, IL-1β release after LPS stimulation; assay type: cell-based; conditions: human PBMCs, 30 min preincubation, 100 ng/ml LPS for 6 hrs, supernatant, MSD technology, read-out: IL1β AC50
Protocol: The activity of a compound according to the present invention can be assessed by in vitro methods.
(§1) Peripheral venous blood was collected from healthy individuals and human peripheral blood mononuclear cells (PBMCs) were isolated from blood by Ficoll-Histopaque (Sigma-Aldrich, A0561) density gradient centrifugation. After isolation, PBMCs were stored in liquid nitrogen for later use. Upon thawing, PBMC cell viability was determined in growth medium (RPMI media supplemented with 10% fetal bovine serum, 1% Pen-Strep and 1% L-glutamine). Compounds were spotted in a 1:3 serial dilution in DMSO and diluted to the final concentration in 30 μl medium in 96 well plates (Falcon, 353072). PBMCs were added at a density of 7.5×10^4 cells per well and incubated for 30 min in a 5% CO2 incubator at 37 ° C. LPS stimulation was performed by addition of 100 ng/ml LPS (final concentration, Invivogen, tlrl-smlps) for 6 hrs followed by collection of cellular supernatant and the analysis of IL-1β[…] and TNF cytokines levels (uμ) via MSD technology according to manufacturers' guidelines (MSD, K151A0H).
(§2) IC50 and AC50 values (for IL-1β) and EC50 and AC50 values (TNF) were obtained on compounds of the invention/examples, and the AC50 values are depicted in the following table: […]

[2] = system: TNF; assay: PBMC assay, TNF release after LPS stimulation; assay type: cell-based; conditions: human PBMCs, 30 min preincubation, 100 ng/ml LPS for 6 hrs, supernatant, MSD technology
Protocol: as §1, §2

CC1CC(C)CN(c2cc(=O)n(CC(=O)Nc3ccc4nncn4c3)nc2C(C)C)C1 (stereo not drawn) [Compound 56]
AC50 [1]: 0.64 µM
AC50 [2]: 16 µM

CC(C)CN(C)c1cc(=O)n(CC(=O)Nc2ccc3nncn3c2)nc1C(C)C [Compound 47]
AC50 [1]: 13.8 µM
AC50 [2]: > 20 µM

CC(C)c1nn(CC(=O)Nc2ccc3nncn3c2)c(=O)cc1Nc1cccc2ocnc12 [Compound 42]
AC50 [1]: > 20 µM
AC50 [2]: > 20 µM

CO[C@H]1CCN(c2cc(=O)n(CC(=O)Nc3ccc4nncn4c3)nc2C(C)C)C1 [Compound 16]
AC50 [1]: 11.4 µM
AC50 [2]: > 10 µM

CC(C)c1nn(CC(=O)Nc2ccc3nncn3c2)c(=O)cc1N1CCN(C)CC1 [Compound 48]
AC50 [1]: > 20 µM
AC50 [2]: > 20 µM

CC(C)c1nn(CC(=O)Nc2ccc3nncn3c2)c(=O)cc1N1CCC[C@@H]1Cn1ccnc1 [Compound 62]
AC50 [1]: > 20 µM
AC50 [2]: > 20 µM

COC[C@H]1CCCN1c1cc(=O)n(CC(=O)Nc2ccc3nncn3c2)nc1C(C)C [Compound 15]
AC50 [1]: 16.6 µM
AC50 [2]: > 10 µM

CC(C)c1nn(CC(=O)Nc2ccc3nncn3c2)c(=O)cc1Nc1cnn(CC23CC(CO2)C3)c1 [Compound 2]
AC50 [1]: > 15 µM
AC50 [2]: > 10 µM

CC(C)c1nn(CC(=O)Nc2ccc3nncn3c2)c(=O)cc1Nc1cnc(C2CC2)nc1 [Compound 39]
AC50 [1]: > 6.67 µM
AC50 [2]: > 6.67 µM

CC(C)c1nn(CC(=O)Nc2ccc3nncn3c2)c(=O)cc1N1CC(CC(F)F)C1 [Compound 35]
AC50 [1]: 4.36 µM
AC50 [2]: > 20 µM

CC(C)c1nn(CC(=O)Nc2ccc3nncn3c2)c(=O)cc1N1Cc2cc(F)cnc2C1 [Compound 34]
AC50 [1]: > 20 µM
AC50 [2]: > 20 µM

CC(C)c1nn(CC(=O)Nc2ccc3nncn3c2)c(=O)cc1N1CC[C@@H](F)C1 [Compound 10]
AC50 [1]: 0.53 µM
AC50 [2]: > 10 µM

CC(C)c1nn(CC(=O)Nc2ccc3nncn3c2)c(=O)cc1N1CCC(F)(F)C1 [Compound 13]
AC50 [1]: 0.66 µM
AC50 [2]: > 10 µM

CC(C)c1nn(CC(=O)Nc2ccc3nncn3c2)c(=O)cc1N1CCC(Cc2ccncc2)C1 (stereo not drawn) [Compound 57]
AC50 [1]: > 20 µM
AC50 [2]: > 20 µM

CC(C)c1nn(CC(=O)Nc2ccc3nncn3c2)c(=O)cc1N1CC[C@H](C)C1 [Compound 51]
AC50 [1]: 0.42 µM
AC50 [2]: > 20 µM

CC(C)c1nn(CC(=O)Nc2ccc3nncn3c2)c(=O)cc1N1CCCC1C(C)C (stereo not drawn) [Compound 20]
AC50 [1]: 10.8 µM
AC50 [2]: > 10 µM

CC(C)c1nn(CC(=O)Nc2ccc3nncn3c2)c(=O)cc1N1CC2CC2C1 (stereo not drawn) [Compound 14]
AC50 [1]: 0.09 µM
AC50 [2]: > 10 µM

CC(C)c1nn(CC(=O)Nc2ccc3nncn3c2)c(=O)cc1N1CCC[C@@H]1C [Compound 18]
AC50 [1]: > 15 µM
AC50 [2]: > 10 µM

CC(C)c1nn(CC(=O)Nc2ccc3nncn3c2)c(=O)cc1N1CCC[C@H](C)C1 [Compound 55]
AC50 [1]: 0.51 µM
AC50 [2]: > 20 µM

CC(C)c1nn(CC(=O)Nc2ccc3nncn3c2)c(=O)cc1Nc1cc([C@H]2C[C@H]2C)on1 [Compound 43]
AC50 [1]: > 20 µM
AC50 [2]: > 20 µM

COC1CN(c2cc(=O)n(CC(=O)Nc3ccc4nncn4c3)nc2C(C)C)C1 [Compound 24]
AC50 [1]: 9.87 µM
AC50 [2]: > 10 µM

CC(C)c1nn(CC(=O)Nc2ccc3nncn3c2)c(=O)cc1N1CCC(Oc2ccccn2)C1 (stereo not drawn) [Compound 59]
AC50 [1]: 9.92 µM
AC50 [2]: 16.1 µM

CC(C)c1nn(CC(=O)Nc2ccc3nncn3c2)c(=O)cc1N(C)C1CC1 [Compound 67]
AC50 [1]: 10.2 µM
AC50 [2]: > 20 µM

CC(C)c1nn(CC(=O)Nc2ccc3nncn3c2)c(=O)cc1NC1CC(C)(C)C1 [Compound 31, N-([1,2,4]triazolo[4,3-a]pyridin-6-yl)-2-(4-((3,3-dimethylcyclobutyl)amino)-3-isopropyl-6-oxopyridazin-1(6H)-yl)acetamide]
AC50 [1]: > 20 µM
AC50 [2]: > 20 µM

CC(C)CNc1cc(=O)n(CC(=O)Nc2ccc3nncn3c2)nc1C(C)C [Compound 46]
AC50 [1]: 1.36 µM
AC50 [2]: > 20 µM

CC(C)c1nn(CC(=O)Nc2ccc3nncn3c2)c(=O)cc1N1CC[C@H](N(C)C)C1 [Compound 28]
AC50 [1]: > 15 µM
AC50 [2]: > 10 µM

CC(C)c1nn(CC(=O)Nc2ccc3nncn3c2)c(=O)cc1N1CC[C@@H]2C[C@@H]2C1 [Compound 33]
AC50 [1]: 0.5 µM
AC50 [2]: > 20 µM

CC1CN(c2cc(=O)n(CC(=O)Nc3ccc4nncn4c3)nc2C(C)C)C1 [Compound 23]
AC50 [1]: 0.71 µM
AC50 [2]: > 10 µM

CC(C)c1nn(CC(=O)Nc2ccc3nncn3c2)c(=O)cc1NC1CCCC1 [Compound 7]
AC50 [1]: 4.36 µM
AC50 [2]: > 10 µM

CC(C)c1nn(CC(=O)Nc2ccc3nncn3c2)c(=O)cc1N1CC(C)(O)C1 [Compound 26]
AC50 [1]: > 15 µM
AC50 [2]: > 10 µM

CC(C)c1nn(CC(=O)Nc2ccc3nncn3c2)c(=O)cc1N1CCC(C)(O)CC1 [Compound 36]
AC50 [1]: > 20 µM
AC50 [2]: > 20 µM

CC(C)c1nn(CC(=O)Nc2ccc3nncn3c2)c(=O)cc1N1CCCC(F)C1 (stereo not drawn) [Compound 60]
AC50 [1]: 1.59 µM
AC50 [2]: 19.1 µM

CC(C)c1nn(CC(=O)Nc2ccc3nncn3c2)c(=O)cc1NCC1CC1 [Compound 29, 2-[4-(cyclopropylmethylamino)-3-isopropyl-6-oxo-pyridazin-1-yl]-N-([1,2,4]triazolo[4,3-a]pyridin-6-yl)acetamide]
AC50 [1]: 1.53 µM
AC50 [2]: > 10 µM

CC(C)c1nn(CC(=O)Nc2ccc3nncn3c2)c(=O)cc1Nc1cc(CC2CC2)on1 [Compound 44]
AC50 [1]: > 20 µM
AC50 [2]: > 20 µM

CCC1CCCN1c1cc(=O)n(CC(=O)Nc2ccc3nncn3c2)nc1C(C)C (stereo not drawn) [Compound 19]
AC50 [1]: 2.61 µM
AC50 [2]: > 10 µM

CC(C)c1nn(CC(=O)Nc2ccc3nncn3c2)c(=O)cc1NCC(F)(F)F [Compound 4]
AC50 [1]: > 15 µM
AC50 [2]: > 10 µM

CC(C)c1nn(CC(=O)Nc2ccc3nncn3c2)c(=O)cc1N1CCCCC1 [Compound 45, N-([1,2,4]triazolo[4,3-a]pyridin-6-yl)-2-(3-isopropyl-6-oxo-4-(piperidin-1-yl)pyridazin-1(6H)-yl)acetamide]
AC50 [1]: 1.23 µM
AC50 [2]: > 20 µM

CC(C)c1nn(CC(=O)Nc2ccc3nncn3c2)c(=O)cc1NC1CC1 [Compound 66]
AC50 [1]: > 20 µM
AC50 [2]: > 20 µM

CC(C)c1nn(CC(=O)Nc2ccc3nncn3c2)c(=O)cc1NCC(F)c1ccccc1 (stereo not drawn) [Compound 37]
AC50 [1]: > 20 µM
AC50 [2]: > 20 µM

CC(C)c1nn(CC(=O)Nc2ccc3nncn3c2)c(=O)cc1N1CCC12CCOCC2 [Compound 25]
AC50 [1]: > 15 µM
AC50 [2]: > 10 µM

CC(C)c1nn(CC(=O)Nc2ccc3nncn3c2)c(=O)cc1N1CC2(CCC2)C1 [Compound 49]
AC50 [1]: 0.76 µM
AC50 [2]: 8.29 µM

CC(C)c1nn(CC(=O)Nc2ccc3nncn3c2)c(=O)cc1N1CCCC1 [Compound 5, 2-(3-isopropyl-6-oxo-4-pyrrolidin-1-yl-pyridazin-1-yl)-N-([1,2,4]triazolo[4,3-a]pyridin-6-yl)acetamide]
AC50 [1]: 0.33 µM
AC50 [2]: > 10 µM

CC(C)c1nn(CC(=O)Nc2ccc3nncn3c2)c(=O)cc1N1C2CCC1CC2 [Compound 21]
AC50 [1]: 1.02 µM
AC50 [2]: > 10 µM

CC(C)c1nn(CC(=O)Nc2ccc3nncn3c2)c(=O)cc1N1CCOCC1 [Compound 6]
AC50 [1]: > 15 µM
AC50 [2]: > 10 µM

CC(C)c1nn(CC(=O)Nc2ccc3nncn3c2)c(=O)cc1N1CC(C)(F)C1 [Compound 32]
AC50 [1]: 1.37 µM
AC50 [2]: > 20 µM

CC(C)c1nn(CC(=O)Nc2ccc3nncn3c2)c(=O)cc1N1CCC2(CC1)CC2(F)F [Compound 61]
AC50 [1]: 19.5 µM
AC50 [2]: > 20 µM

CC(C)c1nn(CC(=O)Nc2ccc3nncn3c2)c(=O)cc1N1CCC2(CCCO2)C1 (stereo not drawn) [Compound 52]
AC50 [1]: > 20 µM
AC50 [2]: > 20 µM

COC[C@@H]1CCCN1c1cc(=O)n(CC(=O)Nc2ccc3nncn3c2)nc1C(C)C [Compound 8]
AC50 [1]: 5.81 µM
AC50 [2]: > 10 µM

CC(C)c1nn(CC(=O)Nc2ccc3nncn3c2)c(=O)cc1N1CCCC1Cc1ccccn1 (stereo not drawn) [Compound 63]
AC50 [1]: 1.28 µM
AC50 [2]: > 20 µM

CC(C)c1nn(CC(=O)Nc2ccc3nncn3c2)c(=O)cc1N1CC2(COC2)C1 [Compound 50]
AC50 [1]: > 20 µM
AC50 [2]: > 20 µM

CC(C)c1nn(CC(=O)Nc2ccc3nncn3c2)c(=O)cc1N1CCC[C@H]1CO (single isomer, unassigned) [Compound 11]
AC50 [1]: > 15 µM
AC50 [2]: > 10 µM

CC(C)c1nn(CC(=O)Nc2ccc3nncn3c2)c(=O)cc1Nc1ccc2oncc2c1 [Compound 41, N-([1,2,4]triazolo[4,3-a]pyridin-6-yl)-2-(4-(benzo[d]isoxazol-5-ylamino)-3-isopropyl-6-oxopyridazin-1(6H)-yl)acetamide]
AC50 [1]: > 20 µM
AC50 [2]: > 20 µM

CC(C)c1nn(CC(=O)Nc2ccc3nncn3c2)c(=O)cc1N1CCC(c2nccs2)C1 (stereo not drawn) [Compound 64]
AC50 [1]: 15.1 µM
AC50 [2]: > 20 µM

CC(C)c1nn(CC(=O)Nc2ccc3nncn3c2)c(=O)cc1NC(C)C1CC1(F)F (stereo not drawn) [Compound 40, N-([1,2,4]triazolo[4,3-a]pyridin-6-yl)-2-(4-((1-(2,2-difluorocyclopropyl)ethyl)amino)-3-isopropyl-6-oxopyridazin-1(6H)-yl)acetamide]
AC50 [1]: > 20 µM
AC50 [2]: > 20 µM
